Where “and” joins values, the source holds several entries; their conditions need not be identical. Equal values may be shown once.
How the values were obtained:
mushroom tyrosinase [1] = assay: Inhibition of tyrosinase activity (L-Dopa, absorbance at 475 nm), procedure of Example 3; type: biochemical; details: for effects of inhibiting tyrosinase activity (FIG. 1, 3, 4): 25° C., various concentrations in DMSO; for effects for inhibiting tyrosinase activity relative to kojic acid: compared with kojic acid, Table 2; for IC50: procedure of Example 3, read-out: Concentration at which 50% of tyrosinase activity is inhibited
Protocol: 1/15M phosphate buffer (70 μl, pH 6.8), 2 μl each of sample solutions of the C18-adsorbed fraction obtained in Example 1 dissolved in dimethyl sulfoxide (DMSO) at various concentrations, and 70 μl (10 U) of mushroom tyrosinase (Calzyme Laboratories) dissolved in the buffer were mixed, and the mixture was incubated at 25° C. for 10 minutes. Thereafter, 70 μl of 10 mM L-Dopa was added to initiate the reaction, the absorbance at 475 nm was assayed every 20 seconds for 2 minutes, and the inhibition (%) of tyrosinase activity was calculated using the following equation. […] Further, PVPP resin was added to the supernatant to a concentration of 1%, and the resultant was also agitated for 1.5 hours, followed by centrifugation to obtain a supernatant. […] The sample was dissolved in 1/15M phosphate buffer (pH 6.8) instead of DMSO. The polyphenol content was assayed in the same manner as in Example 1.

tyrosinase [2] = assay: Tyrosinase activity inhibition, C18-adsorbed fraction and ascorbic acid alone and combined (Example 12, absorbance at 450 nm); type: biochemical, mushroom
Protocol: A sample (or a combination of two types of samples) was dissolved in DMSO and diluted with DMSO at adequate concentrations.
A tyrosinase solution (70 μl, 10 U/70 μl, Calzyme Laboratories, Inc.), 70 μl of 1/15M phosphate buffer (Wako Pure Chemical Industries, Ltd.), and 4 μl each of the samples dissolved in DMSO at various concentrations were introduced into separate wells of a 96-well plate. DMSO was added to a control sample instead of a sample solution.
After the pre-incubation was carried out at 25° C. for 10 minutes, 70 μl of 10 mM L-DOPA (Wako Pure Chemical Industries, Ltd.) was added, the mixture was mixed immediately thereafter, and the absorbance at 450 nm was assayed every 20 seconds for 2 minutes. Change (slope) in the absorbance per unit time thus assayed was designated as the initial rate, and the inhibition (%) was determined by the following equation. Inhibition (%)={1−(initial ratesample/initial ratecontrol)}×100
The terms “additive effect” and “synergistic effect” are described. When tyrosinase activity inhibition (%) by the C18-adsorbed fraction alone at a concentration of A μg/ml is X (%) and tyrosinase activity inhibition (%) by ascorbic acid alone at a concentration of B μg/ml is Y (%), the case where the value Z for the tyrosinase activity inhibition (%) assayed upon the reaction of the C18-adsorbed fraction at a concentration of A μg/ml with ascorbic acid at a concentration of B μg/ml is equal to the sum of X+Y is evaluated as “C18-adsorbed fraction additively reacts with ascorbic acid.” The case where the value Z is greater than the sum of X+Y is evaluated as “C18-adsorbed fraction synergistically reacts with ascorbic acid.” When the value Z is smaller than the sum of X+Y, the C18-adsorbed fraction and ascorbic acid attenuate their effects each other.

mushroom tyrosinase [3] = assay: Test of anthocyanidin compounds for inhibiting tyrosinase activity (Example 11, IC50); type: biochemical; details: for IC50: 25° C., L-Dopa, 475 nm
Protocol: The sample compounds were dissolved in DMSO and diluted with DMSO at adequate concentrations.
1/15M phosphate buffer (70 μl), 70 μl of a solution containing mushroom tyrosinase adjusted at 1 U/μl with a buffer, and 2 μl each of sample solutions dissolved in DMSO at various concentrations were introduced into separate wells of a 96-well plate, and these substances were thoroughly mixed, followed by incubation at 25° C. for 10 minutes.
A solution of 10 mM L-Dopa (70 μl) was added and mixed in immediately thereafter. […] The reaction was carried out at 25° C.
Change (slope) in the absorbance per unit time was designated as the initial rate, and the inhibition of tyrosinase activity (%) was determined by the following equation. Inhibition (%)={1−(initial ratesample/initial ratecontrol)}×100

tyrosinase [4] = details: cited from earlier work
[5] = in vivo; cited from earlier work

| IC50 (mushroom tyrosinase [3]) [µM] | SMILES | effects of inhibiting tyrosinase activity (mushroom tyrosinase [3]) | effects of inhibiting tyrosinase activity (Non-Patent Document 1) (tyrosinase [4]) | also measured |
| --- | --- | --- | --- | --- |
| – | O=C1O[C@H]([C@@H](O)CO)C(O)=C1O [Ascorbic acid, ascorbic acid] | – | – | Inhibition of tyrosinase activity (%) (mushroom tyrosinase [1]; Ascorbic acid 33.3 μM): 5.49%; Mean of tyrosinase activity inhibition (n = 3) (tyrosinase [2]; ascorbic acid alone 2.4 μg/ml): −1.3%; Mean of tyrosinase activity inhibition (n = 3) (tyrosinase [2]; ascorbic acid alone 4.7 μg/ml): 1.0% and 1.0 ± 3.4%; Mean of tyrosinase activity inhibition (n = 3) (tyrosinase [2]; ascorbic acid alone 9.4 μg/ml): 9.0% and 9.0 ± 2.9%; Mean of tyrosinase activity inhibition (n = 3) (tyrosinase [2]; ascorbic acid alone 47.2 μg/ml): 95.0%; tyrosinase inhibitory activity (tyrosinase [2]; ascorbic acid at a concentration up to 9.4 μg/ml): inhibitory activity was not observed very much; tyrosinase inhibitory activity (tyrosinase [2]; ascorbic acid at a final concentration of 47.2 μg/ml): almost completely inhibited |
| > 2000 | C[C@@H]1O[C@@H](O[C@H]2C(=O)c3c(O)cc(O)cc3O[C@@H]2c2ccc(O)c(O)c2)[C@H](O)[C@H](O)[C@H]1O [Astilbin, dehydroquercitrin] | – | – | – |
| 33 | C[C@@H]1O[C@@H](Oc2cc3c(O)cc(O)cc3[o+]c2-c2ccc(O)c(O)c2)[C@H](O)[C@H](O)[C@H]1O.[Cl-] [C3R, cyanidin-3-rhamnoside] | – | – | effects of inhibiting tyrosinase activity (FIG. 1, 3, 4) (mushroom tyrosinase [1]): found to have effects of inhibiting tyrosinase activity; effects for inhibiting tyrosinase activity relative to kojic acid (mushroom tyrosinase [1]): equivalent to those of kojic acid; IC50 (mushroom tyrosinase [1]): 33 µM |
| 11 | Oc1cc(O)c2cc(O)c(-c3ccc(O)c(O)c3)[o+]c2c1.[Cl-] [Cyanidin chloride] | found to have effects of inhibiting tyrosinase activity | neither delphinidin, cyanidin, and malvidin have effects of inhibiting tyrosinase activity | – |
| 84 | OC[C@H]1O[C@@H](Oc2cc3c(O)cc(O)cc3[o+]c2-c2ccc(O)c(O)c2)[C@H](O)[C@@H](O)[C@@H]1O [Cyanidin-3-glucoside, reference compound] | – | – | – |
| 16.4 | Oc1cc(O)c2cc(O)c(-c3cc(O)c(O)c(O)c3)[o+]c2c1 [Delphinidin chloride] | found to have effects of inhibiting tyrosinase activity | neither delphinidin, cyanidin, and malvidin have effects of inhibiting tyrosinase activity | – |
| – | O=c1cc(CO)occ1O [Kojic acid] | – | – | potential cause of liver cancer in animal tests [5]: found to be a potential cause of liver cancer |
| 5.7 | CC1O[C@@H](Oc2cc3c(O)cc(O)cc3[o+]c2-c2ccc(O)cc2)[C@@H](O)C(O)[C@H]1O (some centres unmarked) [P3R, pelargonidin-3-rhamnoside] | – | – | effects of inhibiting tyrosinase activity (FIG. 1, 3, 4) (mushroom tyrosinase [1]): found to have effects of inhibiting tyrosinase activity; effects for inhibiting tyrosinase activity relative to kojic acid (mushroom tyrosinase [1]): about 6 times; IC50 (mushroom tyrosinase [1]): 5.7 µM |
| 20 | Oc1ccc(-c2[o+]c3cc(O)cc(O)c3cc2O)cc1 [Pelargonidin chloride] | found to have effects of inhibiting tyrosinase activity | – | – |

| SMILES | IC50 (mushroom tyrosinase [3]) [µM] | effects of inhibiting tyrosinase activity (mushroom tyrosinase [3]) | effects of inhibiting tyrosinase activity (Non-Patent Document 1) (tyrosinase [4]) | also measured |
| --- | --- | --- | --- | --- |
| COc1cc(-c2[o+]c3cc(O)cc(O)c3cc2O)cc(OC)c1O [Malvidin chloride] | 0.4 | particularly potent | neither delphinidin, cyanidin, and malvidin have effects of inhibiting tyrosinase activity | – |
